Measurements as given in US6194408A, “Triazineone compounds for treating diseases due to Sarcocystis, Neospora and Toxoplasma” (Bayer Corporation, priority 1998, dated 2001).
Several values for one entry are separate records, joined by “and”; a condition that tells them apart may be missing. Equal entries are not always repeated.

What was measured:
Format in all cases: in vivo
[1] = Pharmacokinetics of a single oral dose of Toltrazuril in horses (blood levels); details: horses receiving single oral 10 mg/kg Toltrazuril
Experimental: A pharmacokinetic study was conducted in horses comparing blood levels of Toltrazuril, Ponazuril and Toltrazuril Sulfoxide at various times post a single dose of Toltrazuril. All horses received a single dose of 10 mg/kg, which was administered orally as a suspension. Blood samples were drawn at the time of treatment (0) and at 0.25, 0.5, 1, 2, 4, 6, 12, 24, 48 and 72 hours post treatment. […] This was an indication that Ponazuril, alone, would produce acceptable blood levels that are envisioned to pass the blood-brain barrier, a characteristic required to treat neurological diseases such as those caused by Sarcocystis neurona, Toxoplasma gondii, Neospora caninum and Neospora heugesi.

[2] = Serum drug levels after repeated doses of Toltrazuril in horses; set-up: unit not given here; details: for Toltrazuril Level (Table 5b) / Toltrazuril Level (Table 5a): per horse; for AVG Toltrazuril Level (Table 5b) / AVG Toltrazuril Level (Table 5a): average
Experimental: (§1) This experiment was conducted in order to determine whether triazineones such as Toltrazuril can pass the blood-brain barrier. Normal horses were divided into three groups of three horses per group. Group 1 horses received Toltrazuril administered orally as a 5% suspension at a dose level of 2.5 mg/Kg. Group 2 horses received Toltrazuril administered orally as a 5% suspension at a dose level of 5.0 mg/Kg. Group 3 horses received Toltrazuril administered orally as a 5% suspension at a dose level of 7.5 mg/Kg. The dosing was repeated daily for 10 days. Blood samples were drawn at 48, 96 and 240 hours and the concentration of Toltrazuril, Toltrazuril sulfoxide and Ponazuril in the serum was measured. Ten days after the start of the treatment (Day 10), a sample of cerebral spinal fluid was removed from each horse and the concentrations of Toltrazuril, Toltrazuril Sulfoxide and Ponazuril were again measured in these samples. The concentrations of Toltrazuril, Toltrazuril Sulfoxide and Ponazuril in the serum and cerebral spinal fluid are reported in TABLES 5a and 5b.

[3] = Cerebral spinal fluid drug levels / passage of blood-brain barrier after repeated doses of Toltrazuril in horses; details: for AVG Cerebral Spinal Fluid level (Table 5b) / AVG Cerebral Spinal Fluid level (Table 5a): CSF, average, Day 10
Experimental: as §1

Cc1cc(-n2c(=O)[nH]c(=O)n(C)c2=O)ccc1Oc1ccc([S+]([O-])C(F)(F)F)cc1 (stereo not drawn) [Toltrazuril Sulfoxide]
Levels in serum / bloodstream (in words) [1]: significant levels

Cc1cc(-n2c(=O)[nH]c(=O)n(C)c2=O)ccc1Oc1ccc(SC(F)(F)F)cc1 [Toltrazuril]
Toltrazuril Level (Table 5b) ([2]; 2.5 mg/Kg oral Toltrazuril daily for 10 days, 240 Hrs, 2.5 mg/kg): 2.61 and 2.36 and 4.04 | Toltrazuril Level (Table 5a) ([2]; 2.5 mg/Kg oral daily for 10 days, 96 Hrs, 2.5 mg/kg): 9.85 and 9.09 and 13.1 | Toltrazuril Level (Table 5a) ([2]; 2.5 mg/Kg oral daily for 10 days, 240 Hrs, 2.5 mg/kg): 15.29 and 9.60 and 15.21 | Toltrazuril Level (Table 5b) ([2]; 5.0 mg/Kg oral Toltrazuril daily for 10 days, 48 Hrs, 5 mg/kg): 0.48 and 0.63 | Toltrazuril Level (Table 5b) ([2]; 5.0 mg/Kg oral Toltrazuril daily for 10 days, 96 Hrs, 5 mg/kg): 2.09 and 2.03 and 2.66 | Toltrazuril Level (Table 5a) ([2]; 5.0 mg/Kg oral daily for 10 days, 48 Hrs, 5 mg/kg): 7.28 and 9.18 and 9.26 | Toltrazuril Level (Table 5a) ([2]; 5.0 mg/Kg oral daily for 10 days, 96 Hrs, 5 mg/kg): 14.17 and 14.03 and 18.19 | Toltrazuril Level (Table 5a) ([2]; 5.0 mg/Kg oral daily for 10 days, 240 Hrs, 5 mg/kg): 24.92 and 16.54 and 17.59 | Toltrazuril Level (Table 5b) ([2]; 7.5 mg/Kg oral Toltrazuril daily for 10 days, 96 Hrs, 7.5 mg/kg): 2.69 and 2.89 and 3.09 | Toltrazuril Level (Table 5b) ([2]; 7.5 mg/Kg oral Toltrazuril daily for 10 days, 240 Hrs, 7.5 mg/kg): 6.31 and 6.37 and 7.06 | Toltrazuril Level (Table 5a) ([2]; 7.5 mg/Kg oral daily for 10 days, 48 Hrs, 7.5 mg/kg): 9.90 and 10.46 | Toltrazuril Level (Table 5a) ([2]; 7.5 mg/Kg oral daily for 10 days, 96 Hrs, 7.5 mg/kg): 27.74 and 19.55 and 18.47 | Toltrazuril Level (Table 5a) ([2]; 7.5 mg/Kg oral daily for 10 days, 240 Hrs, 7.5 mg/kg): 30.08 and 24.15 and 23.53 | AVG Toltrazuril Level (Table 5b) ([2]; 2.5 mg/Kg oral Toltrazuril daily for 10 days, 48 Hrs): 1.41 | AVG Toltrazuril Level (Table 5b) ([2]; 2.5 mg/Kg oral Toltrazuril daily for 10 days, 96 Hrs): 1.76 | AVG Toltrazuril Level (Table 5b) ([2]; 2.5 mg/Kg oral Toltrazuril daily for 10 days, 240 Hrs): 3.00 | AVG Toltrazuril Level (Table 5a) ([2]; 2.5 mg/Kg oral daily for 10 days, 48 Hrs): 6.70 | AVG Toltrazuril Level (Table 5a) ([2]; 2.5 mg/Kg oral daily for 10 days, 96 Hrs): 10.68 | AVG Toltrazuril Level (Table 5a) ([2]; 2.5 mg/Kg oral daily for 10 days, 240 Hrs): 13.37 | AVG Toltrazuril Level (Table 5b) ([2]; 5.0 mg/Kg oral Toltrazuril daily for 10 days, 48 Hrs): 0.53 | AVG Toltrazuril Level (Table 5b) ([2]; 5.0 mg/Kg oral Toltrazuril daily for 10 days, 96 Hrs): 2.26 | AVG Toltrazuril Level (Table 5b) ([2]; 5.0 mg/Kg oral Toltrazuril daily for 10 days, 240 Hrs): 5.02 | AVG Toltrazuril Level (Table 5a) ([2]; 5.0 mg/Kg oral daily for 10 days, 48 Hrs): 8.57 | AVG Toltrazuril Level (Table 5a) ([2]; 5.0 mg/Kg oral daily for 10 days, 96 Hrs): 15.46 | AVG Toltrazuril Level (Table 5a) ([2]; 5.0 mg/Kg oral daily for 10 days, 240 Hrs): 19.68 | AVG Toltrazuril Level (Table 5b) ([2]; 7.5 mg/Kg oral Toltrazuril daily for 10 days, 48 Hrs): 2.55 | AVG Toltrazuril Level (Table 5b) ([2]; 7.5 mg/Kg oral Toltrazuril daily for 10 days, 96 Hrs): 2.89 | AVG Toltrazuril Level (Table 5b) ([2]; 7.5 mg/Kg oral Toltrazuril daily for 10 days, 240 Hrs): 6.58 | AVG Toltrazuril Level (Table 5a) ([2]; 7.5 mg/Kg oral daily for 10 days, 48 Hrs): 10.18 | AVG Toltrazuril Level (Table 5a) ([2]; 7.5 mg/Kg oral daily for 10 days, 96 Hrs): 21.92 | AVG Toltrazuril Level (Table 5a) ([2]; 7.5 mg/Kg oral daily for 10 days, 240 Hrs): 25.95 | AVG Cerebral Spinal Fluid level (Table 5b) ([3]; 2.5 mg/Kg oral Toltrazuril daily for 10 days): 0.09 | AVG Cerebral Spinal Fluid level (Table 5a) ([3]; 2.5 mg/Kg oral daily for 10 days): 0.15 | AVG Cerebral Spinal Fluid level (Table 5b) ([3]; 5.0 mg/Kg oral Toltrazuril daily for 10 days): 0.16 | AVG Cerebral Spinal Fluid level (Table 5a) ([3]; 5.0 mg/Kg oral daily for 10 days): 0.19 | AVG Cerebral Spinal Fluid level (Table 5b) ([3]; 7.5 mg/Kg oral Toltrazuril daily for 10 days): 0.22 | AVG Cerebral Spinal Fluid level (Table 5a) ([3]; 7.5 mg/Kg oral daily for 10 days): 0.39 | Crossing of the blood-brain barrier ([3]; horses, after oral Toltrazuril daily for 10 days): effectively cross the blood-brain barrier
